Source: patent publication CN103800339A, “一类治疗精神分裂症的化合物及其用途” (Individual, priority 2012, dated 2014)

Tested on: ketamine schizophrenia model rats (大鼠分裂症氯胺酮模型大鼠)
Assay: Social interaction test in ketamine-induced schizophrenia model rats (total activity time, aggressive and non-aggressive behaviour)
Type: in vivo, rat
Settings: n=20, mean±SD
[1] = day of drug withdrawal, after 7 days i.m. dosing (compounds A-E 1 mg/kg; risperidone 2 mg/kg), ketamine model Wistar rats, 7 min test, * P<0.05, ** P<0.01 vs model

With `Cc1nc2n(c(=O)c1CCN1CCC(c3noc4cc(F)ccc34)CC1)CCCC2` [利培酮] as the compound, how does the total activity time (7 days after drug withdrawal, after 7 days i.m. dosing (compounds A-E 1 mg/kg; risperidone 2 mg/kg), ketamine model Wistar rats, 7 min test, * P<0.05, ** P<0.01 vs model) read?
Its total activity time is 18.2±6.3.

And the total activity time (before dosing (baseline), male Wistar rats, ketamine 30 mg/kg i.p. 5 days)?
The total activity time was 13.9±2.9.

What about the “number of aggressive behaviours” value [1] of the same compound?
The value was 3.1±1.5.

And the “number of non-aggressive behaviours” value [1]?
The value was 6.3±3.9.

And the total activity time [1]?
Its total activity time is 23.2±6.1.
